Source: patent publication US11034658B2, “Pyridinyl pyrazoles as modulators of RORγT” (Janssen Pharmaceutica NV, priority 2018, dated 2021)

Key:
[1] = target: human RORγt ligand binding domain (RORγt LBD) (Homo sapiens (Human), UniProt P51449); test: RORγt ThermoFluor assay
[2] = target: full-length human RORγt (GAL4-DBD-RORγt fusion) in HEK293T cells (Homo sapiens (Human), UniProt P51449); test: RORγt (full-length human) reporter assay, conditions A or B; type: cell-based; conditions: for IC50: HEK293T cells, read-out: RORγt (FL) Reporter Assay A or B, IC50; for inhibition at 3 µM / inhibition at 1 µM / inhibition at 6 µM / inhibition at 2 µM: HEK-293T; for inhibition at 3 µM: 3 μM compound concentration (footnote *); for inhibition at 3 µM / inhibition at 1 µM / inhibition at 2 µM: read-out: RORγt (FL) Reporter Assay A or B, % inhibition; for inhibition at 1 µM: 1 μM compound concentration (footnote ***); for inhibition at 6 µM: 6 μM compound, read-out: RORγt (FL) Reporter Assay A or B, % inhibition @ 6 μM; for inhibition at 2 µM: 2 μM compound concentration
How it was run: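 HEK293T cells expressing GAL4-DBD-RORγt fusion (96- or 384-well formats, DMEM/10% FBS) exposed to compound overnight (16–20 h). Firefly luciferase normalized to DMSO and saturating reference compound, then to Renilla; IC50 from dose curve, % inhibition versus DMSO.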

Sequence of full-length human RORγt (GAL4-DBD-RORγt fusion) in HEK293T cells (P51449 other isoform, or with tags, fused parts or gaps): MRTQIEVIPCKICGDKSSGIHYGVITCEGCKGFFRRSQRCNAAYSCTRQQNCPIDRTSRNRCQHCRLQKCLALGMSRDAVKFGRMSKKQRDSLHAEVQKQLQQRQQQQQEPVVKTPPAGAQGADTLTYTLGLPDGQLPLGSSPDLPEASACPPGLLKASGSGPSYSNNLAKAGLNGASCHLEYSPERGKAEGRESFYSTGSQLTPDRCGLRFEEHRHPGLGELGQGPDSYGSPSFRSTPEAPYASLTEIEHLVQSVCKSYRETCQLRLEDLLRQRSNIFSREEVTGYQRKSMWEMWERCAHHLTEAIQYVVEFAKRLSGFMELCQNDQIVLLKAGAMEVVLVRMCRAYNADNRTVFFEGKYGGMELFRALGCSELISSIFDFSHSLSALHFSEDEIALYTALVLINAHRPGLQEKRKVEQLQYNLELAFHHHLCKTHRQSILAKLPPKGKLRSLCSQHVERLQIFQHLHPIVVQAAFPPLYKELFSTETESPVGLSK
Sequence of human RORγt ligand binding domain (RORγt LBD) (P51449 other isoform, or with tags, fused parts or gaps): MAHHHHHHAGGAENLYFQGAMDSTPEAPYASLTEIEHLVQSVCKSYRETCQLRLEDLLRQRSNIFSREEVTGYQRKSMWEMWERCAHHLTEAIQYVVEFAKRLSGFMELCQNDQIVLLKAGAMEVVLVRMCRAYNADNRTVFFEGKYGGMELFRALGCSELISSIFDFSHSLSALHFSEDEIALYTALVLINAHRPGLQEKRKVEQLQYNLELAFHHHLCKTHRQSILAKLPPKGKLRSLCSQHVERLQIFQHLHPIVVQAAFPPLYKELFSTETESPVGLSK

With `CCn1nc(C(=O)NC[C@]2(O)CC[C@@H](S(C)(=O)=O)CC2)c(Cl)c1-c1cnc(CCCC(F)(F)F)cc1OC(F)F` [Example 33, 4-Chloro-5-(4-(difluoromethoxy)-6-(4,4,4-trifluorobutyl)pyridin-3-yl)-1-ethyl-N-(((1s,4s)-1-hydroxy-4-(methylsulfonyl)cyclohexyl)methyl)-1H-pyrazole-3-carboxamide] the Kd [1] was 62 nM, the IC50 [2] was 1100 nM and the inhibition at 3 µM [2] was 66%.

Compound `CCn1nc(C(=O)NC[C@H]2CC[C@H](S(C)(=O)=O)CC2)c(C)c1-c1cnc(CCCC(F)(F)F)cc1OC(F)F` [Example 34, 5-(4-(Difluoromethoxy)-6-(4,4,4-trifluorobutyl)pyridin-3-yl)-1-ethyl-4-methyl-N-(((1r,4r)-4-(methylsulfonyl)cyclohexyl)methyl)-1H-pyrazole-3-carboxamide] has a Kd [1] of 34 nM, an IC50 [2] of 58 nM and an inhibition at 1 µM [2] of 92%.

`CCn1nc(C(=O)NC[C@]2(O)CC[C@@H](S(C)(=O)=O)CC2)c(C)c1-c1cnc(CCCC(F)(F)F)cc1OC(F)F` [Example 35, 5-(4-(Difluoromethoxy)-6-(4,4,4-trifluorobutyl)pyridin-3-yl)-1-ethyl-N-(((1s,4s)-1-hydroxy-4-(methylsulfonyl)cyclohexyl)methyl)-4-methyl-1H-pyrazole-3-carboxamide] gave a Kd [1] of 100 nM, an IC50 [2] of 63 nM and an inhibition at 1 µM [2] of 76%.

`CCn1nc(C(=O)NC[C@]2(O)CC[C@@H](S(C)(=O)=O)CC2)c(Cl)c1-c1cnc(OCC(C)(C)C(F)(F)F)cc1OC` [Example 36, 4-Chloro-1-ethyl-N-(((1s,4s)-1-hydroxy-4-(methylsulfonyl)cyclohexyl)methyl)-5-(4-methoxy-6-(3,3,3-trifluoro-2,2-dimethylpropoxy)pyridin-3-yl)-1H-pyrazole-3-carboxamide] gave a Kd [1] of 20 nM, an IC50 [2] of 33 nM and an inhibition at 3 µM [2] of 104%.

`CCn1nc(C(=O)NC[C@]2(O)CC[C@@H](S(C)(=O)=O)CC2)c(Cl)c1-c1cnc(CC(C)(C)C(F)F)cc1OC(F)F` [Example 38, 4-Chloro-5-(6-(3,3-difluoro-2,2-dimethylpropyl)-4-(difluoromethoxy)pyridin-3-yl)-1-ethyl-N-(((1s,4s)-1-hydroxy-4-(methylsulfonyl)cyclohexyl)methyl)-1H-pyrazole-3-carboxamide] was tested, and the Kd [1] was 15 nM, the IC50 [2] was 220 nM and the inhibition at 3 µM [2] was 88%.

Work on `CCn1nc(C(=O)NC[C@H]2CC[C@H](S(C)(=O)=O)CC2)c(C)c1-c1cnc(CC(C)(C)C(F)F)cc1OC(F)F` [Example 41, 5-(6-(3,3-Difluoro-2,2-dimethylpropyl)-4-(difluoromethoxy)pyridin-3-yl)-1-ethyl-4-methyl-N-(((1r,4r)-4-(methylsulfonyl)cyclohexyl)methyl)-1H-pyrazole-3-carboxamide] yielded a Kd [1] of 6.9 nM, an IC50 [2] of 45 nM and an inhibition at 3 µM [2] of 102%.

`CCn1nc(C(=O)NC[C@]2(O)CC[C@@H](S(C)(=O)=O)CC2)c(C)c1-c1cnc(CC(C)(C)C(F)F)cc1OC(F)F` [Example 42, 5-(6-(3,3-Difluoro-2,2-dimethylpropyl)-4-(difluoromethoxy)pyridin-3-yl)-1-ethyl-N-(((1s,4s)-1-hydroxy-4-(methylsulfonyl)cyclohexyl)methyl)-4-methyl-1H-pyrazole-3-carboxamide] gave a Kd [1] of 35 nM, an IC50 [2] of 430 nM and an inhibition at 3 µM [2] of 95%.

With `CCn1nc(C(=O)NC[C@H]2CC[C@H](S(C)(=O)=O)CC2)c(Cl)c1-c1ccc(CC(C)(C)C(F)(F)F)nc1OC(F)F` [Example 45, 4-Chloro-5-(2-(difluoromethoxy)-6-(3,3,3-trifluoro-2,2-dimethylpropyl)pyridin-3-yl)-1-ethyl-N-(((1r,4r)-4-(methylsulfonyl)cyclohexyl)methyl)-1H-pyrazole-3-carboxamide] the Kd [1] was 0.35 nM, the IC50 [2] was 11 nM and the inhibition at 3 µM [2] was 86%.

For `CCn1nc(C(=O)NC[C@]2(O)CC[C@@H](S(C)(=O)=O)CC2)c(Cl)c1-c1ccc(CC(C)(C)C(F)(F)F)nc1OC(F)F` [Example 46, 4-Chloro-5-(2-(difluoromethoxy)-6-(3,3,3-trifluoro-2,2-dimethylpropyl)pyridin-3-yl)-1-ethyl-N-(((1s,4s)-1-hydroxy-4-(methylsulfonyl)cyclohexyl)methyl)-1H-pyrazole-3-carboxamide], the Kd [1] was 0.66 nM, the IC50 [2] was 89 nM and the inhibition at 3 µM [2] was 97%.

`CCn1nc(C(=O)NC[C@H]2CC[C@H](S(C)(=O)=O)CC2)c(C)c1-c1ccc(CC(C)(C)C(F)(F)F)nc1OC(F)F` [Example 49, 5-(2-(Difluoromethoxy)-6-(3,3,3-trifluoro-2,2-dimethylpropyl)pyridin-3-yl)-1-ethyl-4-methyl-N-(((1r,4r)-4-(methylsulfonyl)cyclohexyl)methyl)-1H-pyrazole-3-carboxamide] was tested, and the Kd [1] was 0.28 nM, the IC50 [2] was 6.4 nM and the inhibition at 3 µM [2] was 106%.

For `CCn1nc(C(=O)NC[C@]2(O)CC[C@@H](S(C)(=O)=O)CC2)c(C)c1-c1ccc(CC(C)(C)C(F)(F)F)nc1OC(F)F` [Example 50, 5-(2-(Difluoromethoxy)-6-(3,3,3-trifluoro-2,2-dimethylpropyl)pyridin-3-yl)-1-ethyl-N-(((1s,4s)-1-hydroxy-4-(methylsulfonyl)cyclohexyl)methyl)-4-methyl-1H-pyrazole-3-carboxamide], the Kd [1] was 1.3 nM, the IC50 [2] was 20 nM and the inhibition at 1 µM [2] was 100%.

With `CCn1nc(C(=O)NC[C@H]2CC[C@H](S(C)(=O)=O)CC2)c(Cl)c1-c1ncc(CC(C)(C)C(F)(F)F)cc1OC(F)F` [Example 52, 4-Chloro-5-(3-(difluoromethoxy)-5-(3,3,3-trifluoro-2,2-dimethylpropyl)pyridin-2-yl)-1-ethyl-N-(((1r,4r)-4-(methylsulfonyl)cyclohexyl)methyl)-1H-pyrazole-3-carboxamide] the Kd [1] was 4.7 nM, the IC50 [2] was 58 nM and the inhibition at 3 µM [2] was 85%.

`CCn1nc(C(=O)NC[C@]2(O)CC[C@@H](S(C)(=O)=O)CC2)c(Cl)c1-c1ncc(CC(C)(C)C(F)(F)F)cc1OC(F)F` [Example 53, 4-Chloro-5-(3-(difluoromethoxy)-5-(3,3,3-trifluoro-2,2-dimethylpropyl)pyridin-2-yl)-1-ethyl-N-(((1s,4s)-1-hydroxy-4-(methylsulfonyl)cyclohexyl)methyl)-1H-pyrazole-3-carboxamide] was tested, and the Kd [1] was 18 nM, the IC50 [2] was 250 nM and the inhibition at 3 µM [2] was 83%.

`CCn1nc(C(=O)NC[C@H]2CC[C@H](S(C)(=O)=O)CC2)c(Cl)c1-c1cnc(CC(C)(C)C(F)(F)F)cc1C(C)(F)F` [Example 54, 4-Chloro-5-(4-(1,1-difluoroethyl)-6-(3,3,3-trifluoro-2,2-dimethylpropyl)pyridin-3-yl)-1-ethyl-N-(((1r,4r)-4-(methylsulfonyl)cyclohexyl)methyl)-1H-pyrazole-3-carboxamide] was tested, and the Kd [1] was 13 nM, the IC50 [2] was 240 nM and the inhibition at 3 µM [2] was 42%.

Compound `CCc1cc(CC(C)(C)C(F)(F)F)ncc1-c1c(Cl)c(C(=O)NC[C@]2(O)CC[C@@H](S(C)(=O)=O)CC2)nn1CC` [Example 55, 4-Chloro-1-ethyl-5-(4-ethyl-6-(3,3,3-trifluoro-2,2-dimethylpropyl)pyridin-3-yl)-N-(((1s,4s)-1-hydroxy-4-(methylsulfonyl)cyclohexyl)methyl)-1H-pyrazole-3-carboxamide] has a Kd [1] of 30 nM, an IC50 [2] of 280 nM and an inhibition at 3 µM [2] of 78%.

In the case of `CCc1cc(CCC(C)(C)C)ncc1-c1c(Cl)c(C(=O)NC[C@]2(O)CC[C@@H](S(C)(=O)=O)CC2)nn1CC` [Example 59, 4-Chloro-5-(6-(3,3-dimethylbutyl)-4-ethylpyridin-3-yl)-1-ethyl-N-(((1s,4s)-1-hydroxy-4-(methylsulfonyl)cyclohexyl)methyl)-1H-pyrazole-3-carboxamide], the Kd [1] is reported as 35 nM, the IC50 [2] is reported as 210 nM and the inhibition at 3 µM [2] is reported as 82%.

`CCn1nc(C(=O)NC[C@H]2CC[C@H](S(C)(=O)=O)CC2)c(Cl)c1-c1cnc(CC(C)C(F)(F)F)cc1OC` (stereo partly drawn) [Example 60, 4-Chloro-1-ethyl-5-(4-methoxy-6-(3,3,3-trifluoro-2-methylpropyl)pyridin-3-yl)-N-(((1r,4r)-4-(methylsulfonyl)cyclohexyl)methyl)-1H-pyrazole-3-carboxamide] was tested, and the Kd [1] was 11 nM, the IC50 [2] was 240 nM and the inhibition at 6 µM [2] was 88%.

Work on `CCn1nc(C(=O)NC[C@]2(O)CC[C@@H](S(C)(=O)=O)CC2)c(Cl)c1-c1cnc(O[C@H](C)C(F)(F)F)cc1OC` [Example 63, 4-Chloro-1-ethyl-N-(((1r,4R)-1-hydroxy-4-(methylsulfonyl)cyclohexyl)methyl)-5-(4-methoxy-6-(((R)-1,1,1-trifluoropropan-2-yl)oxy)pyridin-3-yl)-1H-pyrazole-3-carboxamide] yielded a Kd [1] of 12 nM, an IC50 [2] of 140 nM and an inhibition at 6 µM [2] of 86%.

For `CCn1nc(C(=O)NC[C@H]2CC[C@H](S(C)(=O)=O)CC2)c(Cl)c1-c1cnc(O[C@@H](C)C(F)(F)F)cc1OC` [Example 64], the Kd [1] was 15 nM, the IC50 [2] was 280 nM and the inhibition at 2 µM [2] was 39%.

`CCn1nc(C(=O)NC[C@H]2CC[C@H](S(C)(=O)=O)CC2)c(Cl)c1-c1cnc(O[C@H](C)C(F)(F)F)cc1OC` [Example 65] was tested, and the Kd [1] was 12 nM, the IC50 [2] was 41 nM and the inhibition at 2 µM [2] was 75%.
